Results on 10 compounds are retold here after patent publication US12522606B2, “Modified pyrrolo- and pyrazolo-pyrimidines for prostate cancer therapy” (University of Washington, priority 2020, dated 2026).

Data set [1] in a line: in vitro. Conditions: human, CRL-8155 lymphoblastoid cell line.
The nature of data set [2]: Plasma protein binding, mouse. Format: in vitro ADME.
For the next data set, the system named is C4-2. The experiment in a line: Proliferation EC50, C4-2. It counts as cell-based. The note with it: Table 2. The method, then:
(§1) Anti-tumor activity was determined by screening a series of compounds against the castrate-resistant, androgen-receptor-positive, prostate cancer cell line LNCaP95. […] Inhibition of proliferation was determined based on the level of LNCaP95 cell growth suppression using an MTT assay (NAD(P)H-dependent cellular oxidoreductase enzymatic activities)) read at 72 and 96 hours after addition of the compounds. […] Each cell line was be tested in quadruplicate.
(§2) C4-2 and C4-2B3 are derived from LNCaP but have different characteristics. […] LNCaP, C4-2 and C4-2B require androgen receptor but only LNCaP line is androgen sensitive.

The next data set has as its system MSKCC-EF1. The experiment in a line: Proliferation EC50, MSKCC-EF1. It counts as cell-based. The note with it: Homo sapiens; Table 2. The method, then: as §1, §2
(§3) RWPE-1 is immortalized benign prostate hypertrophic cell line. […] LAPC4 is AR+ castrate resistant line not LNCaP-based prostate cancer. […] HFF1 is human foreskin fibroblast cell line. NCI-H660 is neuroendocrine (NE) prostate cancer human AR− cell line. MSKCC-EF1 is NE human prostate AR- or nearly negative prostate cancer cell line. MCF7 is human breast cancer cell line. U2OS is human osteosarcoma cell line. HepG2 is hepatoma liver tumor cell line. CRL8155 is lymphoblastoid cell line.

A short description of data set [3]: Plasma protein binding, rat. Format: in vitro ADME.
In a further data set the test system is PC3. The experiment in a line: MTT proliferation assay, PC3. Conditions: Homo sapiens; for inhibition at 10 µM: PC-3, read-out: MTT % inhib @ 10 μM PC3. On the technique in general: Tetrazolium assays rely on reduction of a dye to a coloured formazan, in cell work by metabolically active cells.
For the next data set, the system named is ATP levels. The data set can be described thus: Time course of ATP levels, Compound 1 with oligomycin (FIG. 4). It counts as cell-based. Conditions: co-administration with oligomycin.
For a further data set, the system named is 42D. The experiment in a line: Proliferation EC50, 42D. Format: cell-based. Conditions: Table 2.
The nature of a further data set: PK Oral (MMV). Format: in vivo. Conditions: dose 25 mg/kg.
A short description of data set [4]: in vitro. Conditions: human, HepG2 hepatoma cell line.
A further data set has as its system NCI-H660. The data set can be described thus: Proliferation EC50, NCI-H660. It counts as cell-based. Conditions: Homo sapiens, Table 2. On the procedure:
as §1, §2, §3

A further data set has as its system U2OS. The data set can be described thus: Proliferation EC50, U2OS. It counts as cell-based. Conditions: Homo sapiens, Table 2. The method, then:
as §1, §2, §3

A further data set concerns LNCaP. The data set can be described thus: MTT proliferation assay, LNCaP. Conditions: Homo sapiens.
In a further data set the test system is RWPE-1. The data set can be described thus: Proliferation EC50, RWPE-1. Format: cell-based. Conditions: Homo sapiens, Table 2. On the procedure: as §1, §2, §3
In the next data set the test system is 42F. The experiment in a line: Proliferation EC50, 42F. It counts as cell-based. The note with it: Table 2.
A further data set has as its system MCF7. The data set can be described thus: Proliferation EC50, MCF7. Format: cell-based. The note with it: Homo sapiens, Table 2. The method, then:
as §1, §2, §3

The next data set deals with LNCaP95. The experiment in a line: MTT proliferation assay, LNCaP95. Format: cell-based. Conditions: Homo sapiens, LNCaP-95; for EC50: Table 1, LNCaP95 (AR+ PCa), unit inferred; for inhibition at 10 µM: read-out: MTT % inhib @ 10 μM LNCaP95. The method, then: as §1
Data set [5] can be described thus: Plasma protein binding, human. It counts as in vitro ADME.
Another data set concerns DU145. The experiment in a line: Proliferation EC50, DU145. It counts as cell-based. The note with it: Homo sapiens, DU-145; Table 2.
The next data set has as its system LAPC4. The experiment in a line: Proliferation EC50, LAPC4. It counts as cell-based. The note with it: Homo sapiens, Table 2. The method, then:
as §1, §2, §3

For a further data set, the system named is HFF-1. The data set can be described thus: Proliferation EC50, HFF-1. It counts as cell-based. The note with it: Homo sapiens, Table 2. The method, then:
as §1, §2, §3

A further data set deals with CRL-8155. The experiment in a line: Cell toxicity, CRL-8155 lymphoblastoid cell line. The note with it: read-out: EC50 CRL8155; Table 2.
In the next data set the test system is 16D. The experiment in a line: Proliferation EC50, 16D. It counts as cell-based. The note with it: Table 2.
The nature of data set [6]: Cell death when mitochondria respiration is blocked (FIGS. 5A-5C). It counts as cell-based.
A further data set concerns the target hERG (Homo sapiens, UniProt Q12809). The experiment in a line: hERG. The note with it: Table 1; last column beside CC50 (μM), own unit not clearly printed.
Data set [7] concerns intracellular ATP in LNCaP95. The data set can be described thus: Intracellular ATP in LNCaP95 (CellTiter-Glo). The note with it: FIG. 1, without oligomycin. It counts as cell-based. On the technique in general: In ATP-based viability assays light output follows the ATP content of the culture.
Method: The relative intracellular levels of ATP were evaluated by CellTiter-Glo® Luminescent Cell Viability Assay. 2-DG is 2-deoxy-d-glucose.
OXPHOS is oxidative phosphorylation; oligo is oligomycin; AA is antimycin A; ETX is etomoxir; FCCP is carbonyl cyanide-4-trifluoromethoxy)phenylhydrazone; and Rot is rotenone.
The test system of a further data set is HEPG2. The data set can be described thus: Cell toxicity, HEPG2 hepatoma cell line. Conditions: read-out: EC50 HepG2; Table 2.
Another data set deals with APIPC. The experiment in a line: Proliferation EC50, APIPC. It counts as cell-based. Conditions: Table 2.
The next data set relates to LNCaP cells. The experiment in a line: Cell death in LNCaP cells, alone or in combination, 24 h (FIG. 6). It counts as cell-based. On the procedure: FIG. 6 evaluation of Compound 1 and metformin in LNCaP cells. LNCaP cells were treated with Compound 1, oligomycin (Oli), 2-deoxy-d-glucose (2-DG), or metformin (Met), alone or in combination for 24 h.
FIGS. 2-4 provide additional results on the activity of the compounds of the disclosure. […] Co-administration of Compound 1 and metformin is illustrated in FIG. 6. LNCaP cells were treated with Compound 1, oligomycin (Oli), 2-deoxy-d-glucose (2-DG), or metformin (Met), alone or in combination for 24 h. […] None of compounds were sufficient to kill cells under the same conditions on their own.

In another data set the test system is C4-2B. The experiment in a line: Proliferation EC50, C4-2B. It counts as cell-based. The note with it: Table 2. On the procedure:
as §1, §2

For data set [8] the following is noted: background statement; cited from earlier work.
For data set [9] the following is noted: background statement; cited from earlier work. This is another data set of the same source.
The next data set has as its system prostate cancer tumor. The note with it: 60 mg/kg, 2× daily; cited from earlier work.

Like-named read-outs stand apart in the source and are kept apart here. Where only a bound is given, the exact number is not on record here.

Sequence of hERG (Q12809 whole entry): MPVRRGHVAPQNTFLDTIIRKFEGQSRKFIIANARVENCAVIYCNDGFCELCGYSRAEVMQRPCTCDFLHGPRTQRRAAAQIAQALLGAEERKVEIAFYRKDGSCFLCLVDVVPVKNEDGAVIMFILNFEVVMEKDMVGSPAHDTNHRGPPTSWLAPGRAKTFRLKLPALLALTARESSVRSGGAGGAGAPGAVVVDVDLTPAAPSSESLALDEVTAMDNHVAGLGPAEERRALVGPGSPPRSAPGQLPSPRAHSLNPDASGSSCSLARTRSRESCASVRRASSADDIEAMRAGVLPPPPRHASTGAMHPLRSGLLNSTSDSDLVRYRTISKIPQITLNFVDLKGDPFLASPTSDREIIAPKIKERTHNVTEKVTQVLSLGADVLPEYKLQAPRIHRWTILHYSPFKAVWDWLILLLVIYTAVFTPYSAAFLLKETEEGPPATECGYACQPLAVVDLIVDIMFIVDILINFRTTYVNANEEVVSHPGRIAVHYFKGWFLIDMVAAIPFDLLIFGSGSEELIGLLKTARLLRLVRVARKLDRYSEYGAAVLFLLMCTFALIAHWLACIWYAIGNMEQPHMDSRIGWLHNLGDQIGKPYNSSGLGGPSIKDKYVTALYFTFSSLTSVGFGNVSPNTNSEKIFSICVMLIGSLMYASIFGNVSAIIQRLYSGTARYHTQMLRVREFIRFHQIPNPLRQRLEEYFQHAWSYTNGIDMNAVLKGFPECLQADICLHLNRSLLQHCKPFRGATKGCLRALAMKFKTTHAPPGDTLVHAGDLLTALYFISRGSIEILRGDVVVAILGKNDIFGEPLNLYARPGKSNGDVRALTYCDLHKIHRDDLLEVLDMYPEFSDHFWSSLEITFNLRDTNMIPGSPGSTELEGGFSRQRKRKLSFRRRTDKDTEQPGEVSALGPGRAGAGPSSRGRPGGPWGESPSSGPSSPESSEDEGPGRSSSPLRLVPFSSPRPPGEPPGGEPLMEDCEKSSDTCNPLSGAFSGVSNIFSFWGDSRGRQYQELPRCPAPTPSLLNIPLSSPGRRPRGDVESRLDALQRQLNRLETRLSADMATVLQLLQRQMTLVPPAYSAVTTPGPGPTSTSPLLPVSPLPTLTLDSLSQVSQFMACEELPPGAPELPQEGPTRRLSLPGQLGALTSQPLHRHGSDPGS

As for `CNc1ncnc2c1c(-c1ccc3cc(OC4CC4)ccc3c1)nn2CC(C)(C)O` [Example 1, 1-(3-(6-cyclopropoxynaphthalen-2-yl)-4-(methylamino)-1H-pyrazolo[3,4-d]pyrimidin-1-yl)-2-methylpropan-2-ol], the CC50 in “in vitro [1]” and in the data set “in vitro [4]” was > 80 µM each time. Moreover, the results for the fraction unbound in [2], in data set [3] and in data set [5] were 0.012, 0.04 and 0.007, respectively. The EC50 with C4-2 is 12 µM; in the data set with MSKCC-EF1 it was 5 µM; with PC3 (PC-3, read-out: EC50 PC3) it was > 20 µM; in the data set on PC3 (read-out: EC50 PC3), > 20 µM; with 42D, 10 µM; with NCI-H660 it was 10 µM. The EC50 with U2OS was > 20 µM; in the data set on LNCaP (read-out: EC50 LNCaP) it was 8 µM; in the data set on RWPE-1, > 20 µM; with 42F, 20 µM; with MCF7, 8 µM; in the data set with LNCaP95, 5 µM. The half-maximal effective concentration (EC50) is > 20 µM in the data set on DU145; 7 µM with LAPC4; > 20 µM in the data set on HFF-1; > 40 µM in the data set with CRL-8155; 10 µM in the data set on 16D; > 40 µM with HEPG2. Also, the EC50 with APIPC was found to be 10 µM; in the data set on C4-2B it was 12 µM. In addition, the results for the inhibition at 10 µM in the data set on PC3, in the data set on LNCaP (read-out: MTT % inhib @ 10 μM LNCaP) and in the data set with LNCaP95 were 16.8%, 35.4% and 51.5%, respectively. The “earliest time at which ATP levels are altered” value in the data set on ATP levels was determined as 10 min. In “PK Oral (MMV)”, this compound displayed an AUC of 28935 µmol·min/L. The same compound came in with a maximum concentration (Cmax) in the data set “PK Oral (MMV)” (in vivo) of 34 µM. Moreover, in the data set “PK Oral (MMV)” (in vivo), the Tmax is 3 h. The “cell death when mitochondria respiration is blocked” value in [6] is “induces cell death”. The hERG at hERG is 13.9. Moreover, in [7], the “change in ATP levels, compound alone” value is on record as “no change”. In addition, in the data set with LNCaP cells, the “cell death in combination with oligomycin or metformin” value is listed as “cause cell death”.

As to `CC(C)(C)n1nc(-c2cccc3ccccc23)c2c(N)ncnc21` [Example 1NA-PP1], in data set [8], the solubility entry is on record as “low solubility”. Further, the metabolism entry in [9] is listed as “quickly metabolized”.

As to `CC(C)(C)n1nc(Cc2cccc3ccccc23)c2c(N)ncnc21` [Example 1NM-PP1], the solubility result in data set [8] is given as “low solubility”. In data set [9], the metabolism entry is given as “quickly metabolized”.

Take `O=CC[C@@H](O)[C@H](O)[C@H](O)CO` [Example 2-DG, 2-deoxy-d-glucose, reference compound]: the “cell death in combination with oligomycin or metformin” value in the data set with LNCaP cells is reported as “cause cell death”.

Consider `CCOc1ccc2cc(-c3cn(CC(C)(C)O)c4ncnc(NC)c34)ccc2c1` [Example 11, 1-(5-(6-ethoxynaphthalen-2-yl)-4-(methylamino)-7H-pyrrolo[2,3-d]pyrimidin-7-yl)-2-methylpropan-2-ol], for which the CC50 in “in vitro [1]” and in “in vitro [4]” was > 80 µM each time. This compound gave a fraction unbound in [2] of 0.0019. Also, the inhibition at 10 µM in the data set with PC3 came out at 1.6%; in the data set on LNCaP95 it was 55.6%. The results for the EC50 with PC3 (read-out: EC50 PC3) and with LNCaP95 were > 20 µM and 3 µM, respectively.

Regarding `CCOc1ccc2cc(-c3nn(CC(C)(C)O)c4ncnc(NC)c34)ccc2c1` [Example 14, 1-(3-(6-ethoxynaphthalen-2-yl)-4-(methylamino)-1H-pyrazolo[3,4-d]pyrimidin-1-yl)-2-methylpropan-2-ol], the cytotoxic concentration (CC50) in the data set “in vitro [1]” and in “in vitro [4]” was > 80 µM throughout. In data set [2], the fraction unbound was 0.0079. In addition, the values for the inhibition at 10 µM in the data set with PC3 and with LNCaP95 were -3.5% and 42.7%, respectively. For the same compound, the half-maximal effective concentration (EC50) in the data set on PC3 (read-out: EC50 PC3) is > 20 µM; with LNCaP95, 12 µM.

Consider `CNc1ncnc2c1c(-c1ccc3cc(OC4CC4)ccc3c1)cn2CC(C)(C)O` [Example 15, 1-(5-(6-cyclopropoxynaphthalen-2-yl)-4-(methylamino)-7H-pyrrolo[2,3-d]pyrimidin-7-yl)-2-methylpropan-2-ol], for which the CC50 in “in vitro [1]” and in “in vitro [4]” was > 80 µM each time. In addition, the unbound share (fraction unbound) in data set [2] was 0.0017. Moreover, the inhibition at 10 µM with PC3 is 2.8%; with LNCaP95, 53.2%. In addition, the EC50 in the data set on PC3 (read-out: EC50 PC3) was > 20 µM; in the data set with LNCaP95 it was 8 µM.

With `CCOc1ccc2cc(-c3cn(CC(C)(C)OC)c4ncnc(NC)c34)ccc2c1` [Example 18, 5-(6-ethoxynaphthalen-2-yl)-7-(2-methoxy-2-methylpropyl)-N-methyl-7H-pyrrolo[2,3-d]pyrimidin-4-amine], the CC50 in “in vitro [1]” and in the data set “in vitro [4]” was > 80 µM throughout. The fraction unbound in [2] was 0.0077. Moreover, the inhibition at 10 µM in the data set with PC3 is 21%; with LNCaP95 it was 44.9%. Further, the concentration for a half-maximal effect (EC50) in the data set with PC3 (read-out: EC50 PC3) was > 20 µM; in the data set with LNCaP95, 3 µM.

With `CNc1ncnc2c1c(-c1ccc(-c3ccc(Br)cc3)cc1)cn2CC(C)(C)OC` [Example 33, 5-(4′-bromobiphenyl-4-yl)-7-(2-methoxy-2-methylpropyl)-N-methyl-7H-pyrrolo[2,3-d]pyrimidin-4-amine], the free fraction (fraction unbound) in data set [2] is 0.0064. Moreover, the values for the inhibition at 10 µM in the data set with PC3 and with LNCaP95 were 11.4% and 30.7%, respectively. For the same compound, the 50% effective concentration (EC50) in the data set with PC3 (read-out: EC50 PC3) is > 20 µM; with LNCaP95, 5 µM.

As to `Fc1ccc(Cl)cc1-c1nc(Nc2ccncc2)c2nccnc2n1` [SD-208], the “prostate cancer tumor growth in vivo” value in the data set with prostate cancer tumor is on record as “decrease in prostate cancer tumor growth”.

In general, CC50 refers to the concentration that lowers cell viability or growth by half. A low value points to harm at low concentration. What is called fraction unbound is the share of the substance not bound to proteins or other matrix. Lower therefore signals little free substance. For orientation: EC50 means the concentration giving half of the maximal effect. One may read the AUC as concentration integrated over time. Usually Cmax stands for the highest concentration seen after dosing. As usually defined, the Tmax is the time at which the peak concentration occurs.
